One data set deals with AMPA nonspecific. Briefly: radioligand binding assay, cerebral cortex membranes, [3H]AMPA. Conditions: AMPA nonspec, rat; 100 μM. The procedure:
(§1) Nonspecific AMPA, kainate and NMDA binding assays were performed by Eurofins Discovery (Cerep) using rat cerebral cortex membranes and radiolabeled [^3H]AMPA, [^3H]kainic acid and [^3H]CGP 39653, respectively. All compounds were tested at a single concentration of 100 uM in triplicate. mGluR1, mGluR2, mGluR5 and GABAB binding assays were performed by Eurofins Discovery. mGluR1 assay was performed using rat cerebellum membranes and radiolabeled [^3H]quisqalic acid. mGluR2 assay was performed using recombinant Chem-1 cells and [^3H]LY341495. mGluR5 and GABAB binding assays were performed using recombinant CHO-K1 cells and […], respectively. All compounds were tested at a single concentration of 100 uM in triplicate.
(§2) All receptor assays were performed exactly as described in Example 1. Functional assays of all GABAA, NMDA (GluN2A-GluN2D) and AMPA (GluA2) receptor subunits were performed by SB Drug Discovery as a part of their CNS discovery panel using FLIPR technology. All compounds were tested at 7 concentrations in triplicate and EC50/IC50 was determined where applicable. Functional GABAB assay was performed by Eurofins Discovery (Cerep) using Ca^2+-dependent fluorimetry in RBL cells expressing human GABAB (B1/B2) receptor. All compounds were tested at a single concentration of 100 uM in triplicate. […]

The subject of a further data set is C57Bl/6 mice. The data set is classed as in vivo. Conditions: for distance moved in the novel cage: single 100, 300, or 900 mg/kg IP, dose- and time-dependent. As to the method: Dosing: (R)-2MeGlu (30, 100, 300, or 900 mg/kg), (S)-2MeGlu (30, 100, 300, or 900 mg/kg), rac-2MeGln (30, 100, 300, or 900 mg/kg) and vehicle (PBS) were administered at 10 ml/kg IP dosing volume. Three mice were dosed once with the assigned drug (100, 300, or 900 mg/kg) or vehicle and immediately placed in a new cage for novel cage observation. Subsequently, six mice were dosed once with the assigned drug (30 or 100 mg/kg) or vehicle and tested by SHIRPA, activity chamber, and then hot plate tests.
The mouse was dosed and immediately placed in the center of a clean, Innovive disposable rat cage with bedding (dimensions: 17″L×13.4″W×7.8″H) and allowed to move freely while being tracked automatically. Mice were monitored with Ethovision XT tracking software for the distance moved and average velocity during the 60-minute trial. They were returned to their home cage after the test. A new cage was used for each mouse.
Exploratory behavioral tests were performed exactly as previously described by us using 2-month-old C57Bl/6 male mice, Example 1. First, we assessed safety and tolerability of acute exposure to 4APA enantiomers in 22 mice by novel cage observation at 100, 300, or 900 mg/kg IP compared to vehicle (PBS) IP (n=3 or 4 mice per group without sample calculation, based on our previous study. Next, we evaluated 24 drug naïve mice with a 23-measure battery of neurologic dysfunction in mice (SHIRPA) (Rogers et al., 2001), automated activity chamber assessment, and hot plate latency acutely following 30 or 100 mg/kg IP compared to vehicle IP (n=4 or 5 mice per group). No exclusion criteria were predetermined and no randomization was performed to allocate subjects in the study.

Another data set addresses T1, mGluR5 (Homo sapiens, UniProt P41594).
T1 construct: host or cells: CHO-K1 cells
Put plainly: radioligand binding assay, recombinant CHO-K1 cells. As to the method:
as §1
All receptor assays were performed exactly as described in Example 1. Functional assays of all GABAA, NMDA (GluN2A-GluN2D) and AMPA (GluA2) receptor subunits were performed by SB Drug Discovery as a part of their CNS discovery panel using FLIPR technology. All compounds were tested at 7 concentrations in triplicate and EC50/IC50 was determined where applicable. Functional GABAB assay was performed by Eurofins Discovery (Cerep) using Ca^2+-dependent fluorimetry in RBL cells expressing human GABAB (B1/B2) receptor. All compounds were tested at a single concentration of 100 uM in triplicate. Nonspecific AMPA, kainate and NMDA binding assays were performed by Eurofins Discovery (Cerep) using rat cerebral cortex membranes and radiolabeled [^3H]AMPA, [^3H]kainic acid and [^3H]CGP 39653, respectively. All compounds were tested at a single concentration of 100 uM in triplicate. mGluR1, mGluR2, mGluR5 and GABAB binding assays were performed by Eurofins Discovery. All compounds were tested at a single concentration of 100 uM in triplicate.

The subject of the next data set is kainate nonspecific. Briefly: radioligand binding assay, cerebral cortex membranes, [3H]kainic acid. Conditions: kainate nonspec, rat; 100 μM. As to the method: as §1, §2
The subject of data set [1] is mouse cerebral synaptosomes. Put plainly: Synaptosomal neurotransmitter uptake assay. It is filed as cell-based. Conditions: 10 μM substrate; for transport into synaptosomes: 37° C. The procedure: To each tube, 5 μL of a test compound solution (final concentration 10 μM) in Buffer KRP or Buffer KRP alone were added. Samples were incubated at 4° C. or 37° C. for 1, 10, or 30 min and then immediately centrifuged and washed twice by resuspension-centrifugation with Buffer S (0.5 mL). Resulting pellets were resuspended in 170 μL of 0.1% aqueous formic acid and mixed with 330 μL of ACN.
96-well plate experiments: 250 μL aliquots of the synaptosome suspension were transferred to two 0.8-mL 96 well plates, one on ice (0° C. samples only) and one in a thermoblock (37° C. samples only), and equilibrated for 10 min. 5 μL of a test compound (0.5 mM; final concentration: 10 μM) in Buffer KRP or Buffer KRP blank were added 10, 20 or 30 min before the incubation termination. “0 min” samples were prepared by placing the test compound solution in a separate pre-chilled V-shape bottom 2-mL 96 well plate; at the end of incubation 200 μL aliquots of all samples were transferred to the 2-mL 96 well plate and centrifuged (2,500 g for 15 min at 4° C.) immediately. The resulting pellets were rinsed with Buffer KRP, followed by centrifugation, twice, then resuspended in 200 μL of 60% ACN containing 2.5 μM Glu-d5 as internal standard and stored at −80° C. until analysis.
Synaptosome uptake and high potassium-induced release assays were performed as described in Example 1. Uptake assays used 250 μL aliquots of the synaptosome suspension transferred to a pre-chilled 0.8 mL 96 well plate. 5 μL of a test compound solution (0.5 mM; final concentration: 10 μM to compare directly to our previous work was added to each well and incubated at 0° C. or 37° C. After 10, 20 or 30 min, samples were chilled on ice and immediately sedimented (2,500 g for 15 min at 4° C.) and washed with Buffer S (0.5 mL, ×2). Resulting pellets were resuspended in 200 μL of 60% ACN containing 5 μM GABA-d6 and stored at −80° C. until analysis. Potassium-induced release assay used 500 μL aliquots of the synaptosome suspension transferred to pre-chilled microcentrifuge tubes. 2.5 μL of a test compound solution (20 mM; final concentration: 100 μM) in Buffer KRP was added to each tube and incubated for 15 min at 37° C., briefly chilled on ice, and then immediately sedimented (8,000 g for 4 min at 4° C.) and washed with Buffer KRP, followed by centrifugation, twice. The resulting pellets were resuspended in 500 μL of Buffer KRP or Buffer K-KRP and incubated for 5, 10 or 15 min at 37° C., sedimented (8,000 g for 4 min at 4° C.), and washed with Buffer KRP. Resulting pellets were resuspended in 400 μL of 60% ACN containing 2.5 μM GABA-d6 as internal standard and stored at −80° C. until analysis.

T1 sequence (P41594 21-1212): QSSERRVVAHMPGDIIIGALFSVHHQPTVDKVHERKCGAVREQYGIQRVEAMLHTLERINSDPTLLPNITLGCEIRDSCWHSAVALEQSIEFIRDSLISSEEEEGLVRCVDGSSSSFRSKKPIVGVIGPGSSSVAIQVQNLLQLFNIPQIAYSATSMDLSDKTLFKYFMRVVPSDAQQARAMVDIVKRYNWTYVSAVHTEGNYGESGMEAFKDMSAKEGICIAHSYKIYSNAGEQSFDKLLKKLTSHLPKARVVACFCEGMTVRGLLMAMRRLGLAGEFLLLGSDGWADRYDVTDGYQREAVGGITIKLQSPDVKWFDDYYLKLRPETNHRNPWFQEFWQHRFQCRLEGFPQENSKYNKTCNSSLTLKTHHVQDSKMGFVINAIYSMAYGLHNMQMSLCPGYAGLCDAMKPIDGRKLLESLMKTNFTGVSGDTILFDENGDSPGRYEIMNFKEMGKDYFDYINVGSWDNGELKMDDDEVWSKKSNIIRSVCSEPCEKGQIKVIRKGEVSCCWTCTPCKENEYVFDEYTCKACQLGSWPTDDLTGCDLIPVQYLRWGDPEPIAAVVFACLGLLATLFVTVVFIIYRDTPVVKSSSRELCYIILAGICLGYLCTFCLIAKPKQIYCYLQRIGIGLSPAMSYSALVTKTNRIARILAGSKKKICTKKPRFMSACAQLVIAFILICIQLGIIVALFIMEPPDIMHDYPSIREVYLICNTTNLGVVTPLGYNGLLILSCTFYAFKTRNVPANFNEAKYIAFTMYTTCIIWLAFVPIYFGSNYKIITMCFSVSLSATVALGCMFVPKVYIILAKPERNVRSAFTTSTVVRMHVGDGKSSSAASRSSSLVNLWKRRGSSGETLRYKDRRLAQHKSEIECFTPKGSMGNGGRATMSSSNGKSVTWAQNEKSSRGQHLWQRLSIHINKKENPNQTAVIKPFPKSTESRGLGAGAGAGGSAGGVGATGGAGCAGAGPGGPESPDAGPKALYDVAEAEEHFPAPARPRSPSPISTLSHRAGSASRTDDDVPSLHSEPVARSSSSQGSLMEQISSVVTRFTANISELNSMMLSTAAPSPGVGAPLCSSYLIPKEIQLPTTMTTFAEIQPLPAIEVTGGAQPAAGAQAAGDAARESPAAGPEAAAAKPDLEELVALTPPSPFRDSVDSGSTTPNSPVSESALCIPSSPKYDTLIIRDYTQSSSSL

Regarding `C[C@@](N)(CCC(=O)O)C(=O)O` [(R)-2MeGlu, (R)-2-methylglutamic acid], the “% of radioligand binding inhibition” value in the data set on AMPA nonspecific is 15%; with kainate nonspecific, 18%. The “mortality after single dose” value in the data set on C57Bl/6 mice (mouse, in vivo) is recorded as “one mouse died”. The “distance moved in the novel cage” value with C57Bl/6 mice was “significantly decreased”. Also, the inhibition at 100 µM is -20% on mGluR5 (first mGluR5 row of Table 5) and -2% at mGluR5 (second mGluR5 row of Table 5). For the same molecule, the transport into synaptosomes result in data set [1] was “transported into synaptosomes”.

Take `C[C@](N)(CCC(=O)O)C(=O)O` [(S)-2MeGlu, (S)-2-methylglutamic acid]: the “% of radioligand binding inhibition” value with AMPA nonspecific worked out at 12%; with kainate nonspecific, 20%. In addition, the “distance moved in the novel cage” value in the data set on C57Bl/6 mice is on record as “significantly decreased”. In addition, the results for the inhibition at 100 µM on mGluR5 (first mGluR5 row of Table 5) and at mGluR5 (second mGluR5 row of Table 5) were 11% and -4%, respectively. For the same molecule, the transport into synaptosomes result in data set [1] is on record as “transported into synaptosomes”. Besides, in data set [1] (temperature-dependent uptake), the “synaptosomal uptake, faster than the R enantiomer” value is recorded as “approximately 3 fold”.

In general, inhibition refers to the relative decrease from the control value, in per cent.

Values taken from US12589087B2, “Enantiomer selective action on neurotransmission” (The Board of Trustees of the Leland Stanford Junior …, priority 2021, dated 2026).
